Results reported in ChEMBL document CHEMBL1124513, “Synthesis and antitumor activity of ribavirin imidates. A new facile synthesis of ribavirin amidine (1-beta-D-ribofuranosyl-1,2,4-triazole-3-carboxamidine hydrochloride)” (J Med Chem, 1989).
Several values for one entry are separate records, joined by “and”; a condition that tells them apart may be missing. Equal entries are not always repeated.

Legend:
Mus musculus [1] = assay: Post inoculation life span in L1210 leukemic mice treated with 800 mg/kg of compound (qd, day 1); Tested in 6 mice; type: functional
Mus musculus [2] = assay: Post inoculation life span in L1210 leukemic mice treated with 480 mg/kg of compound (qd, day 1); Tested in 6 mice; type: functional
L1210 [3] = assay: Residual leukemic cell populations after last treatment in L1210 leukemic mice treated with 488 mg/kg of compound (qd, day 1-7); Toxic; type: toxicity, organism-based; parameters: dose 488 mg/kg; settings: mouse, in vivo
Mus musculus [4] = assay: Compound was evaluated for leukemia related splenomegaly in DBA2 mice spleen weight was determined ~ 24 hour after the last treatment at schedule of administration = qd, day 1,3, 5, 7, 9, 11 at a dose 800 mg/kg; Toxic; type: ADME, organism-based; parameters: dose 800 mg/kg; settings: in vivo
L1210 [5] = assay: Residual leukemic cell populations after last treatment in L1210 leukemic mice treated with 800 mg/kg of compound (qd, day 1-7); Toxic; type: toxicity, organism-based; parameters: dose 800 mg/kg; settings: mouse, in vivo
L1210 [6] = assay: (§1) Residual leukemic cell populations after last treatment in L1210 leukemic mice treated with 800 mg/kg of compound (qd, day 1); type: functional, Mus musculus
Mus musculus [7] = assay: Post inoculation life span in L1210 leukemic mice treated with 2222 mg/kg of compound (qd, day 1); Tested in 6 mice; type: functional
Mus musculus [8] = assay: Post inoculation life span in L1210 leukemic mice treated with 1333 mg/kg of compound (qd, day 1); type: functional
Mus musculus [9] = assay: Post inoculation life span in L1210 leukemic mice treated with 3704 mg/kg of compound (qd, day 1); Tested in 6 mice; type: functional
Mus musculus [10] = assay: Compound was evaluated for leukemia related splenomegaly in DBA2 mice spleen weight was determined ~ 24 hour after the last treatment at schedule of administration = qd, day 1,3, 5, 7, 9, 11 at a dose 1333 mg/kg; Toxic; type: ADME, organism-based; parameters: dose 1333 mg/kg; settings: in vivo
L1210 [11] = assay: Residual leukemic cell populations after last treatment in L1210 leukemic mice treated with 1333 mg/kg of compound (qd, day 1); type: functional, Mus musculus
Mus musculus [12] = assay: Compound was evaluated for leukemia related splenomegaly in DBA2 mice spleen weight was determined ~ 24 hour after the last treatment at schedule of administration = qd, day 1,3, 5, 7, 9, 11 at a dose 480 mg/kg; type: functional
Mus musculus [13] = assay: Post inoculation life span in L1210 leukemic mice treated with 288 mg/kg of compound (qd, day 1-7); Tested in 6 mice; type: functional
Mus musculus [14] = assay: Post inoculation life span in L1210 leukemic mice treated with 480 mg/kg of compound (qd, day 1-7); Tested in 6 mice; type: functional
L1210 [15] = assay: Residual leukemic cell populations after last treatment in L1210 leukemic mice treated with 288 mg/kg of compound (qd, day 1-7); type: functional, Mus musculus
L1210 [16] = assay: Residual leukemic cell populations after last treatment in L1210 leukemic mice treated with 288 mg/kg of compound (qd, day 1); type: functional, Mus musculus
L1210 [17] = assay: as §1; type: functional, Mus musculus; remark: listed apart in the source
Mus musculus [18] = assay: Post inoculation life span in L1210 leukemic mice treated with 288 mg/kg of compound (qd, day 1); Tested in 6 mice; type: functional
L1210 [19] = assay: Residual leukemic cell populations after last treatment in L1210 leukemic mice treated with 3704 mg/kg of compound (qd, day 1); Toxic; type: toxicity, organism-based; parameters: dose 3704 mg/kg; settings: mouse, in vivo
Mus musculus [20] = assay: Post inoculation life span in L1210 leukemic mice treated with 800 mg/kg of compound (qd, day 1-7); Tested in 6 mice; type: functional
L1210 [21] = assay: Residual leukemic cell populations after last treatment in L1210 leukemic mice treated with 2222 mg/kg of compound (qd, day 1); Toxic; type: toxicity, organism-based; parameters: dose 2222 mg/kg; settings: mouse, in vivo
L1210 [22] = assay: Residual leukemic cell populations after last treatment in L1210 leukemic mice treated with 400 mg/kg of compound (qd, day 1); type: functional, Mus musculus
Mus musculus [23] = assay: Post inoculation life span in L1210 leukemic mice treated with 480 mg/kg of compound (tid, day 1,3,5,7); type: functional
L1210 [24] = assay: Residual leukemic cell populations after last treatment in L1210 leukemic mice treated with 480 mg/kg of compound (tid, day 1,3,5,7); Toxic; type: toxicity, organism-based; parameters: dose 480 mg/kg; settings: mouse, in vivo
Mus musculus [25] = assay: Compound was evaluated for leukemia related splenomegaly in DBA2 mice spleen weight was determined ~ 24 hour after the last treatment at schedule of administration at bid, day 1,3, 5, 7, 9, 11 at a dose 288 mg/kg; type: functional
Mus musculus [26] = assay: Post inoculation life span in L1210 leukemic mice treated with 480 mg/kg of compound (bid, day 1,3,5,7); type: functional
Mus musculus [27] = assay: Compound was evaluated for leukemia related splenomegaly in DBA2 mice spleen weight was determined ~ 24 hour after the last treatment at schedule of administration at bid, day 1,3, 5, 7, 9, 11 at a dose 400 mg/kg; Toxic; type: ADME, organism-based; parameters: dose 400 mg/kg; settings: in vivo
L1210 [28] = assay: Residual leukemic cell populations after last treatment in L1210 leukemic mice treated with 480 mg/kg of compound (bid, day 1-7); Toxic; type: toxicity, organism-based; parameters: dose 480 mg/kg; settings: mouse, in vivo
L1210 [29] = assay: (§2) Residual leukemic cell populations after last treatment in L1210 leukemic mice treated with 480 mg/kg of compound (qd, day 1); type: functional, Mus musculus
L1210 [30] = assay: Residual leukemic cell populations after last treatment in L1210 leukemic mice treated with 480 mg/kg of compound (qd, day 1,4,7); type: functional, Mus musculus
L1210 [31] = assay: Residual leukemic cell populations after last treatment in L1210 leukemic mice treated with 480 mg/kg of compound (tid, day 1); type: functional, Mus musculus
L1210 [32] = assay: Residual leukemic cell populations after last treatment in L1210 leukemic mice treated with 480 mg/kg of compound (bid, day 1,3,5,7); type: functional, Mus musculus
L1210 [33] = assay: Residual leukemic cell populations after last treatment in L1210 leukemic mice treated with 480 mg/kg of compound (qid, day 1); Toxic; type: toxicity, organism-based; parameters: dose 480 mg/kg; settings: mouse, in vivo
Mus musculus [34] = assay: Compound was evaluated for leukemia related splenomegaly in DBA2 mice spleen weight was determined ~ 24 hour after the last treatment at schedule of administration = qd, day 1,3, 5, 7, 9, 11 at a dose 400 mg/kg; type: functional
Mus musculus [35] = assay: (§3) Post inoculation life span in L1210 leukemic mice treated with 480 mg/kg of compound (qd, day 1-7); type: functional
Mus musculus [36] = assay: Compound was evaluated for leukemia related splenomegaly in DBA2 mice spleen weight was determined ~ 24 hour after the last treatment at schedule of administration at qd, day 1,3, 5, 7, 9, 11 at a dose 288 mg/kg; type: functional
Mus musculus [37] = assay: as §3; type: functional; remark: listed apart in the source
Mus musculus [38] = assay: Post inoculation life span in L1210 leukemic mice treated with 480 mg/kg of compound (bid, day 1-7); type: functional
Mus musculus [39] = assay: Post inoculation life span in L1210 leukemic mice treated with 480 mg/kg of compound (qd, day 1,4,7); type: functional
Mus musculus [40] = assay: Post inoculation life span in L1210 leukemic mice treated with 480 mg/kg of compound (tid, day 1-7); type: functional
Mus musculus [41] = assay: Post inoculation life span in L1210 leukemic mice treated with 480 mg/kg of compound (qid, day 1); type: functional
Mus musculus [42] = assay: (§4) Post inoculation life span in L1210 leukemic mice treated with 480 mg/kg of compound (qd, day 1); type: functional
L1210 [43] = assay: Residual leukemic cell populations after last treatment in L1210 leukemic mice treated with 480 mg/kg of compound (bid, day 1); type: functional, Mus musculus
L1210 [44] = assay: Residual leukemic cell populations after last treatment in L1210 leukemic mice treated with 480 mg/kg of compound (qd, day 1,3,5,7); type: functional, Mus musculus
Mus musculus [45] = assay: Post inoculation life span in L1210 leukemic mice treated with 480 mg/kg of compound (tid, day 1); type: functional
Mus musculus [46] = assay: Post inoculation life span in L1210 leukemic mice treated with 480 mg/kg of compound (qd, day 1,3,5,7); type: functional
L1210 [47] = assay: as §2; type: functional, Mus musculus; remark: listed apart in the source
Mus musculus [48] = assay: as §4; type: functional; remark: listed apart in the source
L1210 [49] = assay: Residual leukemic cell populations after last treatment in L1210 leukemic mice treated with 480 mg/kg of compound (tid, day 1-7); Toxic; type: functional, organism-based; parameters: dose 480 mg/kg; settings: Mus musculus
Mus musculus [50] = assay: Post inoculation life span in L1210 leukemic mice treated with 480 mg/kg of compound (bid, day 1); type: functional

CCOC(=N)c1ncn(C2O[C@H](CO)[C@@H](O)[C@H]2O)n1 (stereo not given in full)
T/C (Mus musculus [1]): 159% and 144% | T/C (Mus musculus [2]): 149% | Control (L1210 [3]): Toxic | Spleen weight (Mus musculus [4]): Toxic | Control (L1210 [5]): Toxic | Control (L1210 [6]): 0.4% | T/C (Mus musculus [7]): 92% | T/C (Mus musculus [8]): 149% | T/C (Mus musculus [9]): 48% | Spleen weight (Mus musculus [10]): Toxic | Control (L1210 [11]): 1.3% | Spleen weight (Mus musculus [12]): 1257 mg | T/C (Mus musculus [13]): 144% | T/C (Mus musculus [14]): 134% | Control (L1210 [15]): 27% | Control (L1210 [16]): 1.7% | Control (L1210 [17]): 1.7% | T/C (Mus musculus [18]): 114% | Control (L1210 [19]): Toxic | T/C (Mus musculus [20]): 70% | Control (L1210 [21]): Toxic | Control (L1210 [22]): 1.1%

COC(=N)c1ncn([C@@H]2O[C@H](CO)[C@@H](O)[C@H]2O)n1
T/C (Mus musculus [23]): 76% | Control (L1210 [24]): Toxic | Spleen weight (Mus musculus [25]): 150 mg | T/C (Mus musculus [26]): 162% | Spleen weight (Mus musculus [27]): Toxic | Control (L1210 [28]): Toxic | Control (L1210 [29]): 30% and 21% | Control (L1210 [30]): 73% | Control (L1210 [31]): 0.6% | Control (L1210 [32]): 12% | Control (L1210 [33]): Toxic | Spleen weight (Mus musculus [34]): 216 mg | T/C (Mus musculus [35]): 142% | Spleen weight (Mus musculus [36]): 599 mg | T/C (Mus musculus [37]): 162% and 97% | T/C (Mus musculus [38]): 101% | T/C (Mus musculus [39]): 119% | T/C (Mus musculus [40]): 61% | T/C (Mus musculus [41]): 60% | T/C (Mus musculus [42]): 113% and 116% | Control (L1210 [43]): 9% | Control (L1210 [44]): 46% | T/C (Mus musculus [45]): 153% | T/C (Mus musculus [46]): 121% | Control (L1210 [47]): 32% | T/C (Mus musculus [48]): 114% | Control (L1210 [49]): Toxic | T/C (Mus musculus [50]): 125%
